These molecules were tested against b-Raf (V600E) (Homo sapiens (Human), UniProt P15056, V600E). Settings: read-out: b-Raf IC-50.
b-Raf (V600E), sequence (P15056 whole entry V600E): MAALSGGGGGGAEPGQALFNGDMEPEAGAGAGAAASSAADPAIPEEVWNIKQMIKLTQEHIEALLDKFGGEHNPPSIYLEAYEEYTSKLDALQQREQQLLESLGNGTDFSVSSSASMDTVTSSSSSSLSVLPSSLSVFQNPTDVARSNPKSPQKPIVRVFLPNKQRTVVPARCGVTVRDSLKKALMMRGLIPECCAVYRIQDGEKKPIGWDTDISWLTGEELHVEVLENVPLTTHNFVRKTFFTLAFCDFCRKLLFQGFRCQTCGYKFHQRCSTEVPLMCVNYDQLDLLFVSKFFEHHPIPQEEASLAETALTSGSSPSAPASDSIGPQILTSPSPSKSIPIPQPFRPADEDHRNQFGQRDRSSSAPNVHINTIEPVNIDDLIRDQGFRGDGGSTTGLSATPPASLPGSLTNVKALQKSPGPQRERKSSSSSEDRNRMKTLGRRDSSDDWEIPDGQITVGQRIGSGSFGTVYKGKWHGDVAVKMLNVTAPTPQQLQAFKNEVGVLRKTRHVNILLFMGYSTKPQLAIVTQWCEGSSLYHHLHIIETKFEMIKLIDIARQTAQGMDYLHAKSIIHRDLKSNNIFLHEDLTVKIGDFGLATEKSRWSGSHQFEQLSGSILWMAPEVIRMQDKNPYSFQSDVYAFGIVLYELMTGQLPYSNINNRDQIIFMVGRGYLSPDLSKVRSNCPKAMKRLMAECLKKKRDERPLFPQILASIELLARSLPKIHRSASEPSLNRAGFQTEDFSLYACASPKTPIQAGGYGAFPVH

Structure (SMILES)	IC50 [nM]
Cc1ccc(NC(=O)c2cccc(C(F)(F)F)c2)cc1-c1cc(N2CCOCC2)nc(N2CCOCC2)n1 [Example 10, N-(3-(2,6-dimorpholinopyrimidin-4-yl)-4-methylphenyl)-3-(trifluoromethyl)benzamide]	0.3
Cc1ccc(NC(=O)c2cc(CN(C)C)cc(C(F)(F)F)c2)cc1-c1cc(N2CCOCC2)c(=O)n(C)c1 [Example 173, 3-((dimethylamino)methyl)-N-(4-methyl-3-(1-methyl-5-morpholino-6-oxo-1,6-dihydropyridin-3-yl)phenyl)-5-(trifluoromethyl)benzamide]	9.2

Same assay, conditions: read-out: b-Raf IC-50; AlphaScreen, 60 min pre-incubation, reaction 3 hours at room temperature

IC50 [nM]	Structure (SMILES)
270	Cc1ccc(NC(=O)[C@@H]2CCN[C@H](C(F)(F)F)C2)cc1-c1cc(C2COCCO2)nc(N2CCOCC2)c1 (stereo in doubt) [Example 1132, N-(3-(2-(1,4-dioxan-2-yl)-6-morpholinopyridin-4-yl)-4-methylphenyl)-2-(trifluoromethyl)piperidine-4-carboxamide]

Same assay, conditions: read-out: b-Raf IC-50; Table 2; AlphaScreen, 3 hours reaction

IC50 [nM]	Structure (SMILES)
1.7	Cc1ncc(NC(=O)c2cccc(C(F)(F)F)c2)cc1-c1cnc(OC2CCCC(O)C2)c(N2CCOCC2)c1 (single isomer, unassigned) [Example 320, N-(6′-((3-hydroxycyclohexyl)oxy)-2-methyl-5′-morpholino-[3,3′-bipyridin]-5-yl)-3-(trifluoromethyl)benzamide]
0.3	Cc1ccc(NC(=O)c2cccc(C(F)(F)F)c2)cc1-c1cc(N2CCOCC2)ncn1 [Example 1, N-(4-methyl-3-(6-morpholinopyrimidin-4-yl)phenyl)-3-(trifluoromethyl)benzamide]
4.8	Cc1ccc(NC(=O)c2ccnc(C(C)(C)C#N)c2)cc1-c1cc(N2CCOCC2)ncn1 [Example 2, 2-(2-cyanopropan-2-yl)-N-(4-methyl-3-(6-morpholinopyrimidin-4-yl)phenyl)isonicotinamide]
1.3	Cc1ccc(NC(=O)c2cccc(C(F)(F)F)c2)cc1-c1cc(N2CCS(=O)(=O)CC2)nc(N2CCOCC2)n1 [Example 6, N-(3-(6-(1,1-dioxidothiomorpholino)-2-morpholinopyrimidin-4-yl)-4-methylphenyl)-3-(trifluoromethyl)benzamide]
2.5	Cc1ccc(C(=O)Nc2cccc(C(F)(F)F)c2)cc1-c1cc(N2CCS(=O)(=O)CC2)nc(N2CCOCC2)n1 [Example 7, 3-(6-(1,1-dioxidothiomorpholino)-2-morpholinopyrimidin-4-yl)-4-methyl-N-(3-(trifluoromethyl)phenyl)benzamide]
0.5	Cc1ccc(NC(=O)c2cncc(N(C)C)c2)cc1-c1cc(N2CCOCC2)nc(N2CCOCC2)n1 [Example 18, 5-(dimethylamino)-N-(3-(2,6-dimorpholinopyrimidin-4-yl)-4-methylphenyl)nicotinamide]
4	CCN1CCN(c2cc(C(=O)Nc3ccc(C)c(-c4cc(N5CCOCC5)nc(N5CCOCC5)n4)c3)cc(C(F)(F)F)c2)CC1 [Example 21, N-(3-(2,6-dimorpholinopyrimidin-4-yl)-4-methylphenyl)-3-(4-ethylpiperazin-1-yl)-5-(trifluoromethyl)benzamide]
0.7	Cc1ccc(NC(=O)c2cccc(OC(F)(F)F)c2)cc1-c1cc(N2CCOCC2)nc(N2CCOCC2)n1 [Example 22, N-(3-(2,6-dimorpholinopyrimidin-4-yl)-4-methylphenyl)-3-(trifluoromethoxy)benzamide]
0.7	Cc1ccc(NC(=O)c2cccc(C(F)(F)F)c2)cc1-c1cc(N2CCOCC2)nc(NCCO)n1 [Example 31, N-(3-(2-((2-hydroxyethyl)amino)-6-morpholinopyrimidin-4-yl)-4-methylphenyl)-3-(trifluoromethyl)benzamide]
0.5	Cc1ccc(NC(=O)c2cccc(C(F)(F)F)c2)cc1-c1cc(N2CCOCC2)nc(-n2ccnc2)n1 [Example 33, N-(3-(2-(1H-imidazol-1-yl)-6-morpholinopyrimidin-4-yl)-4-methylphenyl)-3-(trifluoromethyl)benzamide]
2.8	Cc1ccc(NC(=O)c2cccc(C(F)(F)F)c2)cc1-c1cc(N2CCOCC2)cnn1 [Example 59, N-(4-methyl-3-(5-morpholinopyridazin-3-yl)phenyl)-3-(trifluoromethyl)benzamide]
0.9	Cc1ccc(C(=O)Nc2cccc(C(F)(F)F)c2)cc1-c1cc(N2CCOCC2)ccn1 [Example 64, 4-methyl-3-(4-morpholinopyridin-2-yl)-N-(3-(trifluoromethyl)phenyl)benzamide]
500	Cc1ccc(NC(=O)c2cccnn2)cc1-c1ccnc(N2CCOCC2)c1 [Example 67, N-(4-methyl-3-(2-morpholinopyridin-4-yl)phenyl)pyridazine-3-carboxamide]
0.6	Cc1ccc(NC(=O)c2cccc(S(C)(=O)=O)c2)cc1-c1ccnc(N2CCOCC2)c1 [Example 68, N-(4-methyl-3-(2-morpholinopyridin-4-yl)phenyl)-3-(methylsulfonyl)benzamide]
200	Cc1ccc(NC(=O)c2cnccn2)cc1-c1ccnc(N2CCOCC2)c1 [Example 70, N-(4-methyl-3-(2-morpholinopyridin-4-yl)phenyl)pyrazine-2-carboxamide]
600	Cc1ccc(NC(=O)c2ccnnc2)cc1-c1ccnc(N2CCOCC2)c1 [Example 72, N-(4-methyl-3-(2-morpholinopyridin-4-yl)phenyl)pyridazine-4-carboxamide]

IC50 [nM]	Structure (SMILES)
1.9	Cc1ccc(NC(=O)c2ccnc(S(C)(=O)=O)c2)cc1-c1ccnc(N2CCOCC2)c1 [Example 73, N-(4-methyl-3-(2-morpholinopyridin-4-yl)phenyl)-2-(methylsulfonyl)isonicotinamide]
0.6	Cc1ncc(NC(=O)c2cccc(C(F)(F)F)c2)cc1-c1cc(N2CCOCC2)nc(N2CCOCC2)c1 [Example 77, N-(2-methyl-2′,6′-dimorpholino-[3,4′-bipyridin]-5-yl)-3-(trifluoromethyl)benzamide]
25000	CC(F)(F)c1cc(C(=O)Nc2c[nH]c(=O)c(-c3ccnc(N4CCOCC4)c3)c2)ccn1 [Example 89, 2-(1,1-difluoroethyl)-N-(2′-morpholino-2-oxo-1,2-dihydro-[3,4′-bipyridin]-5-yl)isonicotinamide]
0.5	Cc1ccc(NC(=O)c2cccc(C(F)(F)F)c2)cc1-c1cc(N2CCOCC2)ccn1 [Example 111, N-(4-methyl-3-(4-morpholinopyridin-2-yl)phenyl)-3-(trifluoromethyl)benzamide]
1.8	Cc1ncc(NC(=O)c2cccc(C(F)(F)F)c2)cc1-c1cnc(OC2CCOCC2)c(N2CCOCC2)c1 [Example 131, N-(2-methyl-5′-morpholino-6′-((tetrahydro-2H-pyran-4-yl)oxy)-[3,3′-bipyridin]-5-yl)-3-(trifluoromethyl)benzamide]
2.4	Cc1ncc(NC(=O)c2cccc(C(F)(F)F)c2)cc1-c1cnc(OC(C)C)c(N2CCOCC2)c1 [Example 134, N-(6′-isopropoxy-2-methyl-5′-morpholino-[3,3′-bipyridin]-5-yl)-3-(trifluoromethyl)benzamide]
7.1	Cc1ccc(C(=O)Nc2cccc(C(F)(F)F)c2)cc1-c1cc(N2CCOCC2)c(=O)n(C)c1 [Example 137, 4-methyl-3-(1-methyl-5-morpholino-6-oxo-1,6-dihydropyridin-3-yl)-N-(3-(trifluoromethyl)phenyl)benzamide]
4.7	Cc1ncc(NC(=O)c2cccc(C(F)(F)F)c2)cc1-c1cc(N2CCOCC2)c(=O)n(C)c1 [Example 138, N-(1′,2-dimethyl-5′-morpholino-6′-oxo-1′,6′-dihydro-[3,3′-bipyridin]-5-yl)-3-(trifluoromethyl)benzamide]
47.5	Cc1ncc(NC(=O)c2ccnc(C(C)(C)C#N)c2)cc1-c1cc(N2CCOCC2)c(=O)n(C)c1 [Example 141, 2-(2-cyanopropan-2-yl)-N-(1′,2-dimethyl-5′-morpholino-6′-oxo-1′,6′-dihydro-[3,3′-bipyridin]-5-yl)isonicotinamide]
3	Cc1ncc(NC(=O)c2cccc(C(F)(F)F)c2)cc1-c1cnc(OCCO)c(N2CCOCC2)c1 [Example 145, N-(6′-(2-hydroxyethoxy)-2-methyl-5′-morpholino-[3,3′-bipyridin]-5-yl)-3-(trifluoromethyl)benzamide]
1	Cc1ccc(NC(=O)c2cccc(C(F)(F)F)c2)cc1-c1cc(N2CCOCC2)c(=O)n(CC#N)c1 [Example 147, N-(3-(1-(cyanomethyl)-5-morpholino-6-oxo-1,6-dihydropyridin-3-yl)-4-methylphenyl)-3-(trifluoromethyl)benzamide]
10.6	CCn1cc(-c2cc(NC(=O)c3ccnc(C(C)(C)C#N)c3)ccc2C)cc(N2CCOCC2)c1=O [Example 160, 2-(2-cyanopropan-2-yl)-N-(3-(1-ethyl-5-morpholino-6-oxo-1,6-dihydropyridin-3-yl)-4-methylphenyl)isonicotinamide]
2.9	CCOc1ncc(-c2cc(NC(=O)c3ccnc(C(C)(C)C#N)c3)ccc2C)cc1N1CCOCC1 [Example 161, 2-(2-cyanopropan-2-yl)-N-(3-(6-ethoxy-5-morpholinopyridin-3-yl)-4-methylphenyl)isonicotinamide]
1.7	Cc1ccc(NC(=O)c2cccc(C(F)(F)F)c2)cc1-c1cc(N2CCOCC2)c(=O)n(C)n1 [Example 164, N-(4-methyl-3-(1-methyl-5-morpholino-6-oxo-1,6-dihydropyridazin-3-yl)phenyl)-3-(trifluoromethyl)benzamide]
53.4	Cc1ncc(NC(=O)c2ccnc(C(C)(C)C#N)c2)cc1-c1cc(N2CCOCC2)c(=O)n(C)n1 [Example 167, 2-(2-cyanopropan-2-yl)-N-(6-methyl-5-(1-methyl-5-morpholino-6-oxo-1,6-dihydropyridazin-3-yl)pyridin-3-yl)isonicotinamide]

Structure (SMILES)	IC50 [nM]
Cc1ccc(NC(=O)c2cccc(C(F)(F)F)c2)cc1-c1cc(N2CCOCC2)nc(OCCO)n1 [Example 40, N-(3-(2-(2-hydroxyethoxy)-6-morpholinopyrimidin-4-yl)-4-methylphenyl)-3-(trifluoromethyl)benzamide]	0.8

From US9694016B2 (Novartis AG, priority 2013, dated 2017)
